According to patent publication EP1038880B1, “Androstanes and pregnanes for allosteric modulation of GABA receptor” (priority 1994, dated 1995):

Assays:
picrotoxin = test: Anticonvulsant test against picrotoxin; type: in vivo, mice; details: Mus musculus, read-out: ED50 PICRO
Method: (§1) The anticonvulsant tests are similar to that described above. […] The number of animals with tonic and/or clonic convulsions was recorded. In the maximal electroshock test, 50 mA of current at 60 Hz was delivered through corneal electrodes for 200 msec to induce tonic seizure. The ability of compounds to abolish the tonic component was defined as the endpoint. General CNS depression potential was determined by a rotorod test 10 minutes after the injection of compounds where the number of mice staying on a rotating (6 rpm) rod for 1 minute in one of the three trials was determined. […] Table 7. Anticonvulsant Activity of Exemplified Neuroactive Steroids and those of Selected Clinically Useful Anticonvulsants in Mice

tonic seizure = test: Maximal electroshock test; type: in vivo; details: Mus musculus, ip, steroids i.p., mice
Method: as §1

strychnine = test: Anticonvulsant test against strychnine; type: in vivo, mice; details: Mus musculus, read-out: ED50 STR
Method: as §1

[1] = system: metrazol induced convulsions; test: animal or person; type: in vivo, mice; details: Mus musculus; metrazol 85 mg/kg s.c., steroids i.p., mice
GR complex = test: [35S]TBPS binding assay (inhibition of [35S]TBPS binding, cerebral cortex P2 homogenate); design: species or system rat; details: for IC50: 2 nM [35S]TBPS, rat cerebral cortex P2 homogenate; for IMAX: maximum inhibition of [35S]TBPS binding
Outline: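 Rat (male Sprague-Dawley) cortical P2 homogenate (0.5 mg protein) in 50 mM Na/K phosphate pH 7.4, 200 mM NaCl, incubated with 2 nM [35S]TBPS plus steroid test compounds (DMSO) in presence of GABA plus (+)bicuculline, 25°C, 90 min. Filtration, scintillation counting; nonspecific binding defined with […].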

Glucocorticoid Receptors = target: T1, Glucocorticoid Receptors (Rattus norvegicus, UniProt P06536); test: Inhibition of 3H-dexamethasone binding, brain cytosol; design: species or system rats; dose or concentration left out as unconfirmed; details: read-out: % of Inhibition
T1 construct: from tissue; host or cells: rat brain cytosol
T1 sequence (P06536 1-795): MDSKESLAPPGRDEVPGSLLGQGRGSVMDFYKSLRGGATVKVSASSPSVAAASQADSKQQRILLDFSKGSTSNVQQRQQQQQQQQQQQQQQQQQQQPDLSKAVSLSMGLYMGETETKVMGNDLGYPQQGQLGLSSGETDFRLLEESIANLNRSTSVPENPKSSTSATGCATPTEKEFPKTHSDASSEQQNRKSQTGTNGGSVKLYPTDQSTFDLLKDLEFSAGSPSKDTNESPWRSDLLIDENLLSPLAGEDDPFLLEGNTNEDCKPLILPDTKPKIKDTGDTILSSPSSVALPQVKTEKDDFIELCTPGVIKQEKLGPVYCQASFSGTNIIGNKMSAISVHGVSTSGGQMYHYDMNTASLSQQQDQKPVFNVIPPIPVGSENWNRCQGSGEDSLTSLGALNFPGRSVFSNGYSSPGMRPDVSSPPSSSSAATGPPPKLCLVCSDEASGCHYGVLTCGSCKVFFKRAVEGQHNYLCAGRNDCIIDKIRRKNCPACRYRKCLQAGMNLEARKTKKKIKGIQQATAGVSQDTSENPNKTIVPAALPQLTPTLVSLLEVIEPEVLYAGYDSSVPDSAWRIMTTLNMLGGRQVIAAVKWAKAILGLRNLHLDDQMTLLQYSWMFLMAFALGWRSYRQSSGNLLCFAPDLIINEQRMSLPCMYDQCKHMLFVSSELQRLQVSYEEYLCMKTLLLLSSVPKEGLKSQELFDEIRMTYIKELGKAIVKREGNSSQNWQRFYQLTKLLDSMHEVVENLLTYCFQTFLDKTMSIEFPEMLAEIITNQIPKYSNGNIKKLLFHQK
Method: Various hormonal activities of representative neuroactive steroids were further studied through testing their potential estrogenic, mineralocorticoid and glucocorticoid activities. These activities were analyzed by monitoring the ability of the compounds to inhibit binding of the steroid hormones to their respective hormone receptors.
For Table 4, brain cytosol fractions were prepared as for Table 3, and the compounds were incubated with 3 nM of ^3H-dexamethasone (the specific ligand for the glucocorticoid receptor).

CC(=O)[C@H]1CC[C@H]2[C@@H]3CC[C@H]4C[C@H](O)CC[C@]4(C)[C@H]3CC[C@]12C [3α-Hydroxy-5α-pregnan-20-one, 3α-hydroxy-5α-pregnan-20-one]
ED50 (picrotoxin): 10.2 mg/kg | ED50 (tonic seizure): 28.6 mg/kg | ED50 (strychnine): > 300 mg/kg | ED50 [1]: 4.9 mg/kg | IC50 (GR complex): 37 nM | IMAX (GR complex): 95% | inhibition (Glucocorticoid Receptors): 8.7%

C[C@]12CC[C@@H](O)C[C@@H]1CC[C@@H]1[C@@H]2CC[C@]2(C)[C@@H](C(=O)CO)CC[C@@H]12 [3α,21-dihydroxy-5α-pregnan-20-one]
ED50 (picrotoxin): 5.6 mg/kg | ED50 (tonic seizure): 26.7 mg/kg | ED50 (strychnine): > 300 mg/kg | ED50 [1]: 8.1 mg/kg | IC50 (GR complex): 76 nM | IMAX (GR complex): 100% | inhibition (Glucocorticoid Receptors): 29.5%
